Measured values taken from US20060211650A1, “Reducing carbohydrate derivatives of adamantane amines, and synthesis and methods of use thereof” (Forest Laboratories, Inc., priority 2004, published 2006).
Several values for one entry are separate records, joined by “and”; a condition that tells them apart may be missing. Equal values may be shown once.

What was measured:
Assay in all cases: Disk assay, zone of inhibition
Type in all cases: cell-based
[1] = system: Pseudomonas aeruginosa, ATCC #9027; details: 1% solution in saline on disk, Plates 1-3, "No Zone" = no antibacterial activity observed
Description: (§1) The antibiotic activity of a 1% memantine-lactose adduct solution in saline was assayed using a disk assay against three USP bacteria cultures: Staphylococcus aureus, Pseudomonas aeruginosa and Escherichia coli. A negative control, 0.9% saline disk, and a positive control, 1% gentamicin solution in saline, were included. Antibacterial activity was evaluated by measuring (in mm) the size of any clear zone of no growth (i.e., Zone of Inhibition) around each sample. A “No Zone” is reported when no antibacterial activity is observed. […] These experiments may be predictive of biological effects in humans or other mammals and/or may serve as models for use of the present invention in humans or other mammals for the treatment of infections caused by Gram positive or Gram negative bacteria. See, e.g., Kustimur et al., Chinese Medical Journal, 116(4):633-636 (2003).

[2] = system: Staphylococcus aureus, ATCC #6538
Description: as §1

[3] = system: Escherichia coli, ATCC #8739; details: 1% solution in saline on disk, Plates 1-3, "No Zone" = no antibacterial activity observed
Description: as §1

Row | Compound | Zone of Inhibition [1] | Zone of Inhibition ([2]; Staphylococcus aureus ATCC #6538, 1% solution in saline on disk, Plates 1-3, "No Zone" = no antibacterial activity observed) | Zone of Inhibition [3] | antibacterial activity (result in words) ([2]; Staphylococcus aureus, 1% solution in saline, disk assay)
1 | gentamicin | 11.2 mm and 10.9 mm and 9.9 mm | 19.3 mm and 19.1 mm and 15.8 mm | 15.5 mm and 16.8 mm | –
2 | CC12CC3CC(C)(C1)CC(NCC(=O)[C@@H](O)C(O[C@@H]1O[C@H](CO)[C@@H](O)[C@H](O)[C@H]1O)[C@H](O)CO)(C3)C2 (stereo partly drawn) [Memantine-lactose adduct] | No Zone | – | No Zone | found to have antibacterial activity
